Measurements from ChEMBL document CHEMBL1201862, “PubChem BioAssay data set” (2004).
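Cultured in 96-well plates, cells were exposed to test compound for 48 hours across five concentrations. GI50 = concentration required for 50% inhibition of growth.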 Activity calls are given as the source filed them. Rule as the data show it: active = GI50 up to about 1.1 µM and inactive = higher.

Columns and labels:
Test in all cases: DTP human tumour cell line panel, 48 h
SK-MEL-2 = tested on: SK-MEL-2
DMS-114 = tested on: DMS-114
HCT-116 = tested on: HCT-116
SK-MEL-28 = tested on: SK-MEL-28
SNB-19 = tested on: SNB-19
A498 = tested on: A498
HT-29 = tested on: HT-29
SF-539 = tested on: SF-539
KM12 = tested on: KM12
OVCAR-3 = tested on: OVCAR-3
786-0 = tested on: 786-0
TK-10 = tested on: TK-10
UACC-257 = tested on: UACC-257
UACC-62 = tested on: UACC-62
M14 = tested on: M14
SN12C = tested on: SN12C
MDA-N = tested on: MDA-N
PC-3 = tested on: PC-3
DU-145 = tested on: DU-145
T47D = tested on: T47D

SMILES | GI50 (SK-MEL-2) | GI50 (DMS-114) | GI50 (HCT-116) | GI50 (SK-MEL-28) | GI50 (SNB-19) | GI50 (A498) | GI50 (HT-29) | GI50 (SF-539) | GI50 (KM12) | GI50 (OVCAR-3) | GI50 (786-0) | GI50 (TK-10) | GI50 (UACC-257) | GI50 (UACC-62) | GI50 (M14) | GI50 (SN12C) | GI50 (MDA-N) | GI50 (PC-3) | GI50 (DU-145) | GI50 (T47D)
Clc1ccc(C2=NN(c3ccccc3)C3c4cc(Br)ccc4OCC23)cc1 (stereo not drawn) | > 100 µM (inactive) | 86.1 µM (inactive) | 18.6 µM (inactive) | > 100 µM (inactive) | > 100 µM (inactive) | > 100 µM (inactive) | 66.7 µM (inactive) | > 100 µM (inactive) | > 100 µM (inactive) | > 100 µM (inactive) | > 100 µM (inactive) | > 100 µM (inactive) | 99.1 µM (inactive) |  |  |  |  |  |  | 
CC1=NN(c2ccccc2)C(=O)C1=C1SCCCS1 | 56 µM (inactive) | 20.8 µM (inactive) | 13.8 µM (inactive) | 48.6 µM (inactive) | 22.5 µM (inactive) | 45.7 µM (inactive) | 32 µM (inactive) |  | 21.9 µM (inactive) | 22.3 µM (inactive) | 35.5 µM (inactive) | 23.8 µM (inactive) | 28.2 µM (inactive) | 17.3 µM (inactive) | 49.4 µM (inactive) | 28.2 µM (inactive) |  |  |  | 
O=S1(=O)NN=C(NCc2ccc(Cl)c(Cl)c2)c2ccccc21 | > 100 µM (inactive) | > 100 µM (inactive) | > 100 µM (inactive) |  | > 100 µM (inactive) | > 100 µM (inactive) | 53.8 µM (inactive) | > 100 µM (inactive) | > 100 µM (inactive) | > 100 µM (inactive) | > 100 µM (inactive) |  | > 100 µM (inactive) | 6.56 µM (inactive) | > 100 µM (inactive) | > 100 µM (inactive) |  |  |  | 
C[C@]12CCC3[C@@H](CCC45OC4C(=O)CC[C@]35C)C1Cc1cnn(-c3ccc(F)cc3)c1N2 (stereo partly drawn) | 29.9 µM (inactive) | 19.4 µM (inactive) | 15.3 µM (inactive) | 26.6 µM (inactive) | 27.2 µM (inactive) |  | 17.3 µM (inactive) |  | 25.1 µM (inactive) |  | 18.6 µM (inactive) | > 100 µM (inactive) | 35.9 µM (inactive) | 19.7 µM (inactive) | 48.6 µM (inactive) | 23.3 µM (inactive) |  |  |  | 
CCC12CCCC(=O)N1C(CO)C(c1ccccc1)O2 (stereo not drawn) | > 100 µM (inactive) | 38 µM (inactive) | > 100 µM (inactive) | > 100 µM (inactive) | > 100 µM (inactive) | > 100 µM (inactive) | > 100 µM (inactive) | > 100 µM (inactive) | > 100 µM (inactive) | > 100 µM (inactive) | > 100 µM (inactive) | > 100 µM (inactive) | > 100 µM (inactive) | > 100 µM (inactive) |  | > 100 µM (inactive) |  |  |  | 
COc1ccc(CC2=NCCc3cc(OC)c(OC)cc32)cc1Br | 33.4 µM (inactive) | 10.2 µM (inactive) |  | 19.8 µM (inactive) | 12.7 µM (inactive) | 13.1 µM (inactive) | 3.18 µM (inactive) | 24.7 µM (inactive) | 16.1 µM (inactive) |  | 5.78 µM (inactive) | 50 µM (inactive) | 21.3 µM (inactive) | 6.67 µM (inactive) |  | 15.8 µM (inactive) |  |  |  | 
Cc1nnc2n1-c1ccccc1N(Cc1ccccc1)CC2 | 80.7 µM (inactive) |  | 46 µM (inactive) | > 100 µM (inactive) | > 100 µM (inactive) | 93.8 µM (inactive) | 40.1 µM (inactive) | > 100 µM (inactive) | 81.1 µM (inactive) | 39.6 µM (inactive) | 87.7 µM (inactive) | 82.6 µM (inactive) | 63.1 µM (inactive) | 39.6 µM (inactive) | 63.7 µM (inactive) | 58.7 µM (inactive) | 46.2 µM (inactive) | 49.8 µM (inactive) | 70.3 µM (inactive) | 41.2 µM (inactive)
C=C[C@H]1CN2CCc3c([nH]c4cc(O)ccc34)[C@@H]2C[C@@H]1C[C@H]1c2[nH]c3ccccc3c2CCN1C | 3.21 µM (inactive) |  | 2.42 µM (inactive) | 1.78 µM (inactive) | 6.67 µM (inactive) | 2.16 µM (inactive) | 2.48 µM (inactive) | 1.82 µM (inactive) | 3.66 µM (inactive) | 4.39 µM (inactive) | 1.84 µM (inactive) | 8.57 µM (inactive) | 1.95 µM (inactive) | 4.19 µM (inactive) | 1.74 µM (inactive) | 4.79 µM (inactive) | 1.78 µM (inactive) | 4.89 µM (inactive) | 15.6 µM (inactive) | 15.6 µM (inactive)
CC(=O)Nc1ccc2c3c(cc(O)c2c1)N(C(=O)CCCCCCC(=O)Nc1ccc2c4c(cc(O)c2c1)N(C(=O)OC(C)(C)C)CC4CCl)CC3CCl (stereo not drawn) | 0.0423 µM (active) |  | 0.0408 µM (active) | 0.279 µM (active) | 0.046 µM (active) | 0.0244 µM (active) | 0.155 µM (active) | 0.0637 µM (active) | 0.169 µM (active) | 0.045 µM (active) | 0.0757 µM (active) | 0.344 µM (active) | 0.148 µM (active) | 0.0695 µM (active) | 0.0791 µM (active) | 0.13 µM (active) | 0.134 µM (active) | 0.105 µM (active) | 0.0211 µM (active) | 0.0573 µM (active)
CC(O)CC(O)(C(F)(F)F)C(F)(F)F (stereo not drawn) | > 10 µM (inactive) |  | > 10 µM (inactive) | > 10 µM (inactive) | > 10 µM (inactive) | > 10 µM (inactive) | > 10 µM (inactive) | > 10 µM (inactive) | > 10 µM (inactive) | > 10 µM (inactive) | > 10 µM (inactive) | > 10 µM (inactive) | > 10 µM (inactive) | > 10 µM (inactive) | > 10 µM (inactive) | > 10 µM (inactive) | > 10 µM (inactive) | > 10 µM (inactive) | > 10 µM (inactive) | > 10 µM (inactive)
O=c1c2ccccc2sc2ccccc12 | > 100 µM (inactive) |  | > 100 µM (inactive) | > 100 µM (inactive) | > 100 µM (inactive) | > 100 µM (inactive) | > 100 µM (inactive) | > 100 µM (inactive) | > 100 µM (inactive) | > 100 µM (inactive) | > 100 µM (inactive) | > 100 µM (inactive) | > 100 µM (inactive) | > 100 µM (inactive) | > 100 µM (inactive) | > 100 µM (inactive) | > 100 µM (inactive) | > 100 µM (inactive) | > 100 µM (inactive) | > 100 µM (inactive)
CCc1c(C)c(C#N)c(=S)n(C2OC(COC(C)=O)C(OC(C)=O)C(OC(C)=O)C2OC(C)=O)c1-c1ccccc1 (stereo not drawn) | 21.8 µM (inactive) |  | 26.7 µM (inactive) | > 31.6 µM (inactive) | > 10 µM (inactive) | 14.6 µM (inactive) | > 31.6 µM (inactive) | 23.6 µM (inactive) | > 31.6 µM (inactive) | > 31.6 µM (inactive) | 20.7 µM (inactive) | 22.1 µM (inactive) | > 31.6 µM (inactive) | > 10 µM (inactive) | > 31.6 µM (inactive) | > 31.6 µM (inactive) | > 31.6 µM (inactive) | > 10 µM (inactive) | > 31.6 µM (inactive) | > 31.6 µM (inactive)
Nc1ncnc2oc(-c3cccs3)nc12 | > 100 µM (inactive) |  | > 100 µM (inactive) | > 100 µM (inactive) | > 100 µM (inactive) | > 100 µM (inactive) | 83.4 µM (inactive) | > 100 µM (inactive) | > 100 µM (inactive) | > 100 µM (inactive) | > 100 µM (inactive) | > 100 µM (inactive) | > 100 µM (inactive) | 66.1 µM (inactive) | > 100 µM (inactive) | > 100 µM (inactive) | > 100 µM (inactive) | > 100 µM (inactive) | > 100 µM (inactive) | > 100 µM (inactive)
CC(C)(C)C1(O)C=C(O)C(=O)N1NC(=O)c1ccccc1Nc1ccccc1 (stereo not drawn) | 24.7 µM (inactive) |  | 38.6 µM (inactive) | 50.2 µM (inactive) | 54.8 µM (inactive) | 32.1 µM (inactive) | 41.1 µM (inactive) | 41.4 µM (inactive) | 40.9 µM (inactive) | 6.84 µM (inactive) | 56.9 µM (inactive) | 46.3 µM (inactive) | 24.2 µM (inactive) | 24.8 µM (inactive) | 76.4 µM (inactive) | 60.5 µM (inactive) | 62.2 µM (inactive) | 40 µM (inactive) | > 100 µM (inactive) | 36.1 µM (inactive)
CC(=O)Nc1ccc(C2CC(c3ccc([N+](=O)[O-])cc3)=Nc3ccccc3[S+]2[O-])cc1 (stereo not drawn) | 27.4 µM (inactive) | 21.2 µM (inactive) |  | 19.6 µM (inactive) | 36.8 µM (inactive) |  | 22.6 µM (inactive) | 24.6 µM (inactive) | 14.1 µM (inactive) | 25.3 µM (inactive) | 9.64 µM (inactive) | 28.8 µM (inactive) | 28.6 µM (inactive) | 11.6 µM (inactive) | 27.9 µM (inactive) | 24.5 µM (inactive) |  |  |  | 
S=c1[nH]c(Cl)cc2nc(Cl)cn12 | 3.85 µM (inactive) |  | 3.82 µM (inactive) | 8.2 µM (inactive) | 6.04 µM (inactive) | 14.4 µM (inactive) | 4.66 µM (inactive) | 2.2 µM (inactive) | 4.14 µM (inactive) | 2.59 µM (inactive) | 3.72 µM (inactive) | 7.5 µM (inactive) | > 100 µM (inactive) | 6.93 µM (inactive) | 4.24 µM (inactive) | 7.29 µM (inactive) | 1.98 µM (inactive) | 3.94 µM (inactive) | 5.01 µM (inactive) | 23.4 µM (inactive)
